Source: patent publication US9040563B2, “Dual inhibitors of farnesyltransferase and geranylgeranyltransferase I” (H. Lee Moffitt Cancer Center and Research Institute, Inc., priority 2010, dated 2015)
Where two headings read alike, the source gives them in different places.

Columns and labels:
[1] = molecular target: hFTase (Homo sapiens, UniProt P49354+P49356); test: In vitro hFTase inhibition: incorporation of [3H]FPP into recombinant H-Ras-CVLS; assay type: biochemical; settings: GGTase-I IC50 / hFTase IC50
[2] = tested on: geranylgeranylation of Rap1A; test: Whole cell inhibition of Rap1A processing (geranylgeranylation), immunoblot, oncogenic H-Ras-transformed NIH3T3 cells; assay type: cell-based, mouse; settings: Mus musculus
Protocol: In vitro inhibition assays for FTase and GGTase-I were conducted by measuring the incorporation of [^3H]FPP and [^3H]GGPP into recombinant H-Ras-CVLS and H-Ras-CVLL, respectively, as previously described (Vogt, et al., Protein geranylgeranylation, not farnesylation, is required for the G1 to S phase transition in mouse fibroblasts. Oncogene, 1996, 13, 1991-1999). The in vivo inhibition of farnesylation and geranylgeranylation was determined based on the level of inhibition by synthetic compounds of H-Ras and Rap1A processing, respectively (Sun, et al., Both farnesyltransferase and geranylgeranyltransferase I inhibitors are required for inhibition of oncogenic K-Ras prenylation but each alone is sufficient to suppress human tumor growth in nude mouse xenografts. Oncogene, 1998, 16, 1467-1473). […] The separated proteins were transferred to nitrocellulose and immunoblotted using an anti-Ras antibody (Y13-258) or an anti-Rap1A antibody (SantaCruz Biotechnology, Santa Cruz, Calif.), respectively. Antibody reactions were visualized using either peroxidase-conjugated goat anti-rat IgG or goat anti-rabbit IgG (Jackson ImmunoResearch, West Grove, Pa.) and an enhanced chemiluminescence detection system.
Briefly, in vitro inhibition assays for hFTase and GGTase-I were carried out by measuring the incorporation of [^3H]FPP and [^3H]GGPP into recombinant H-Ras-CVLS and H-Ras-CVLL, respectively, as described previously (Vogt et al., Protein geranylgeranylation, not farnesylation, is required for G1 to S phase transition in mouse fibroblasts. Oncogene. 1996; 13:1991-1999). Whole cell inhibition of farnesylation and geranylgeranylation were determined based on the level of inhibition by synthetic compounds of H-Ras and Rap1A processing, respectively (Sun, et al., Both farnesyltransferase and geranylgeranyltransferase I inhibitors are required for inhibition of oncogenic K-Ras prenylation but each alone is sufficient to suppress human tumor growth in nude mouse xenografts. Oncogene. 1998; 16:1467-1473).

[3] = whole cells, oncogenic H-Ras-transformed NIH3T3, n = 3 unless stated, read-out: Rap1A processing IC50

selectivity (ratio of GGTase-I to FTase IC50s) [1] | IC50 [2, 3] | Molecule | IC50 ([2]; NIH3T3, read-out: Rap1A processing IC50)
>14 | > 10 µM | C=CCN(CCN(Cc1cncn1C)c1ccc(C#N)cc1)S(=O)(=O)c1cn(C)cn1 [1ab] | –
2.6 | > 10 µM | Cn1cnc(S(=O)(=O)N(CCN(Cc2cncn2C)c2ccc(C#N)cc2)Cc2cccs2)c1 [1ak, [N-(Thiophen-2-ylmethyl), N-{2-[(4-cyanophenyl)-(3-methyl-3H-imidazol-4-ylmethyl)-amino]-ethyl}]1-methyl-1H-imidazole-4-sulfonamide] | –
15 | > 10 µM | Cc1ccccc1CN(CCN(Cc1cncn1C)c1ccc(C#N)cc1)S(=O)(=O)c1cn(C)cn1 [1ao] | –
12 | > 10 µM | Cc1cccc(CN(CCN(Cc2cncn2C)c2ccc(C#N)cc2)S(=O)(=O)c2cn(C)cn2)c1 [1ap] | –
– | – | Cc1ccc(CN(CCN(Cc2cncn2C)c2ccc(C#N)cc2)S(=O)(=O)c2cn(C)cn2)cc1 [1aq] | > 10 µM
– | > 10 µM | Cn1cnc(S(=O)(=O)N(CCN(Cc2cncn2C)c2ccc(C#N)cc2)Cc2cccc(C#N)c2)c1 [1ar] | –
2.4 | > 10 µM | Cn1cnc(S(=O)(=O)N(CCN(Cc2cncn2C)c2ccc(C#N)cc2)Cc2cccc(-c3ccccc3)c2)c1 [1at] | –
4.3 | > 10 µM | Cn1cnc(S(=O)(=O)N(CCN(Cc2cncn2C)c2ccc(C#N)cc2)Cc2ccc(-c3ccccc3)cc2)c1 [1au] | –
15 | > 10 µM | Cn1cnc(S(=O)(=O)N(CCN(Cc2cncn2C)c2ccc(C#N)cc2)Cc2ccc(-n3cccc3)cc2)c1 [1av] | –
7.6 | > 10 µM | Cn1cncc1CN(CCN(Cc1ccccc1)S(=O)(=O)c1ccccc1)c1ccc(C#N)cc1 [1d] | –
>91 | – | Cn1cnc(S(=O)(=O)N(CCN(Cc2cncn2C)c2ccc(C#N)cn2)CC2CCN(c3ncccn3)CC2)c1 [19c, [N-{2-[(5-Cyanopyridin-2-yl)-(3-methyl-3H-imidazol-4-ylmethyl)-amino]-ethyl}, N-{N-(2-pyrimidinyl)-piperidin-4-ylmethyl}]1-methyl-1H-imidazole-4-sulfonamide] | –
>16 | – | Cn1cnc(S(=O)(=O)N(CCN(Cc2cncn2C)c2ncc(C#N)cn2)CC2CCN(c3ncccn3)CC2)c1 [19d, [N-{2-[(5-Cyanopyrimidin-2-yl)-(3-methyl-3H-imidazol-4-ylmethyl)-amino]-ethyl}, N-{N-(2-pyrimidinyl)-piperidin-4-ylmethyl}]1-methyl-1H-imidazole-4-sulfonamide] | –
>34 | – | Cn1cnc(S(=O)(=O)N(CCN(Cc2cncn2C)c2c(F)cc(C#N)cc2F)CC2CCN(c3ncccn3)CC2)c1 [19g, [N-{2-[(2,6-Difluoro-4-cyanophenyl)-(3-methyl-3H-imidazol-4-ylmethyl)-amino]-ethyl}, N-{N-(2-pyrimidinyl)-piperidin-4-ylmethyl}]1-methyl-1H-imidazole-4-sulfonamide] | –
18 | – | Cn1cnc(S(=O)(=O)N(CCN(Cc2cncn2C)c2c(F)c(F)c(C#N)c(F)c2F)CC2CCN(c3ncccn3)CC2)c1 [19h, [N-{2-[(2,3,5,6-Tetrafluoro-4-cyanophenyl)-(3-methyl-3H-imidazol-4-ylmethyl)-amino]-ethyl}, N-{N-(2-pyrimidinyl)-piperidin-4-ylmethyl}]1-methyl-1H-imidazole-4-sulfonamide] | –
11 | – | Cn1cnc(S(=O)(=O)N(CCCN(Cc2cncn2C)c2ccc(C#N)cc2)Cc2ccccc2)c1 [20a] | –
>10 | – | Cn1cnc(S(=O)(=O)N(Cc2ccccc2)[C@@H]2CCC[C@@H]2N(Cc2cncn2C)c2ccc(C#N)cc2)c1 [20b] | –
>15 | – | Cn1cnc(S(=O)(=O)N(Cc2ccccc2)[C@H]2CC[C@@H](N(Cc3cncn3C)c3ccc(C#N)cc3)C2)c1 [20d] | –
14 | > 10 µM | Cn1cnc(S(=O)(=O)N(CCN(Cc2cncn2C)c2ccc(C#N)cc2)Cc2ccsc2)c1 [compound 1ai, [N-(Thiophen-3-ylmethyl), N-{2-[(4-cyanophenyl)-(3-methyl-3H-imidazol-4-ylmethyl)-amino]-ethyl}]1-methyl-1H-imidazole-4-sulfonamide] | –
15 | > 10 µM | Cn1cnc(S(=O)(=O)N(CCN(Cc2cncn2C)c2ccc(C#N)cc2)Cc2ccco2)c1 [compound 1aj, [N-(Furan-2-ylmethyl), N-{2-[(4-cyanophenyl)-(3-methyl-3H-imidazol-4-ylmethyl)-amino]-ethyl}]1-methyl-1H-imidazole-4-sulfonamide] | –
0.9 | – | Cn1cnc(S(=O)(=O)N(CCN(Cc2cncn2C)c2ccc(C(=O)OC(C)(C)C)cc2)Cc2ccccc2)c1 [compound 11, tert-Butyl 4-[{2-[benzyl-(1-methyl-1H-imidazole-4-sulfonyl)-amino]-ethyl}-(3-methyl-3H-imidazol-4-ylmethyl)-amino]-benzoate] | –
48 | – | Cn1cnc(S(=O)(=O)N(CCN(Cc2cncn2C)c2ccc(C(=O)O)cc2)Cc2ccccc2)c1 [compound 12, 4-[{2-[Benzyl-(1-methyl-1H-imidazole-4-sulfonyl)-amino]-ethyl}-(3-methyl-3H-imidazol-4-ylmethyl)-amino]-benzoic acid] | –
0.7 | – | Cn1cnc(S(=O)(=O)N(CCN(Cc2cncn2C)c2ccc(-c3ccccc3)cc2)Cc2ccccc2)c1 [compound 14, [N-Benzyl, N-{2-[(biphenyl-4-yl)-(3-methyl-3H-imidazol-4-ylmethyl)-amino]-ethyl}]1-methyl-1H-imidazole-4-sulfonamide] | –
>156 | – | Cn1cnc(S(=O)(=O)N(CCN(Cc2cncn2C)c2ccc(C#N)cc2F)CC2CCN(c3ncccn3)CC2)c1 [compound 19f, [N-{2-[(2-Fluoro-4-cyanophenyl)-(3-methyl-3H-imidazol-4-ylmethyl)-amino]-ethyl}, N-{N-(2-pyrimidinyl)-piperidin-4-ylmethyl}]1-methyl-1H-imidazole-4-sulfonamide] | –

Molecule | selectivity (ratio of GGTase-I to FTase IC50s) [1] | IC50 [2, 3] | IC50 ([2]; NIH3T3, read-out: Rap1A processing IC50)
4-[{2-[Benzyl-(1-methyl-1H-imidazole-4-sulfonyl)-amino]-ethyl}-(1-methyl-1H-imidazol-4-ylmethyl)-amino]-benzamide [compound 13] | >2 | – | –
Cn1cnc(S(=O)(=O)N(CCN(Cc2cncn2C)c2ccc(C#N)cc2Cl)CC2CCN(c3ncccn3)CC2)c1 [19a, [N-{2-[(2-Chloro-4-cyanophenyl)-(3-methyl-3H-imidazol-4-ylmethyl)-amino]-ethyl}, N-{N-(2-pyrimidinyl)-piperidin-4-ylmethyl}]1-methyl-1H-imidazole-4-sulfonamide] | >18 | – | –
Cn1cnc(S(=O)(=O)N(CCN(Cc2cncn2C)c2ccc(C#N)nc2)CC2CCN(c3ncccn3)CC2)c1 [19b] | >19 | – | –
Cn1cnc(S(=O)(=O)N(CCN(Cc2cncn2C)c2ccc(C#N)c(F)c2)CC2CCN(c3ncccn3)CC2)c1 [19e, [N-{2-[(3-Fluoro-4-cyanophenyl)-(3-methyl-3H-imidazol-4-ylmethyl)-amino]-ethyl}, N-{N-(2-pyrimidinyl)-piperidin-4-ylmethyl}]1-methyl-1H-imidazole-4-sulfonamide] | 41 | – | –
